Test results as given in paper PMC6651387, “Fine-Tuning the Activation Mode of an 1,3-Indandione-Based Ruthenium(II)-Cymene Half-Sandwich Complex by Variation of Its Leaving Group” (Molecules, 2019).
Where “and” joins values, the source holds several entries; their conditions need not be identical. Equal values may be shown once.

What was measured:
[1] = system: CH1/PA-1 (ovarian teratocarcinoma) cells; experiment: MTT antiproliferative assay, CH1/PA-1; assay type: cell-based, human; details: exposure time 96 h, means ± standard deviations
Description: CH1/PA-1 (ovarian teratocarcinoma) cells were a generous gift from Lloyd R. Kelland (CRC Centre for Cancer Therapeutics, Institute of Cancer Research, Sutton, UK). A549 (non-small cell lung cancer), SW480, and HCT116 (both colon cancer) cells were kindly provided by the Institute of Cancer Research, Department of Medicine I, Medical University of Vienna, Austria. All cell lines were grown as monolayer cultures in Eagle’s MEM supplemented with L-glutamine (4 mM), sodium pyruvate (1 mM) and 1% (v/v) non-essential amino acid solution (all from Sigma-Aldrich) and 10% (v/v) heat-inactivated fetal calf serum (FCS, BioWest) in 75-cm^2 flasks (Starlab) at 37 °C under a humidified atmosphere containing 5% CO2 in air.
Antiproliferative activity of the compounds was determined with the colorimetric MTT assay (MTT = 3-(4,5-dimethyl-2-thiazolyl)-2,5-diphenyl-2H-tetrazolium bromide). CH1/PA-1, HCT116, SW480, and A549 cells with cell numbers of 1 × 10^3, 1.5 × 10^3, 2 × 10^3, and 3 × 10^3, respectively, were seeded in 100 μL per well into 96-well microculture plates (Starlab). After 24 h, test compounds were dissolved in DMSO (Fisher Scientific), serially diluted in complete MEM not to exceed a final DMSO content of 0.5% (v/v) and added in 100 μL per well. After 96 h, the drug-containing medium was replaced with 100 µL of RPMI 1640/MTT mixture, i. e., 6 parts of RPMI 1640 medium (Sigma-Aldrich; supplemented with 10% heat-inactivated fetal bovine serum and 4 mM L-glutamine), 1 part of MTT solution in phosphate-buffered saline (5 mg/mL; both from Sigma-Aldrich). After incubation for 4 h, the MTT-containing medium was replaced with 150 μL DMSO per well to dissolve the formazan product formed by viable cells. Optical densities at 550 nm (and at the reference wavelength of 690 nm) were measured with a microplate reader (ELx808, Bio-Tek). The IC50 values relative to untreated controls were interpolated from concentration–effect curves. At least three independent experiments were performed, each with triplicates per concentration level.

[2] = pH-dependent stability by UV-VIS spectroscopy; assay type: physicochemical; details: for precipitation at pH 7.4: 40 µM, PBS, 1% DMSO, loss of absorbance without change in spectrum
Text: The stability under physiological conditions is a vital part of the process of developing a new drug. Additionally, N-donor leaving groups equip piano-stool complexes with an elegant pH-switch. Theoretically, they can be protonated at lower pH values, as found in the extracellular matrix of the tumor tissue, and are therefore cleaved off. The resulting aqua complex is highly reactive and able to interact with biological targets. To put this theory to the test, the stability of complexes 1a–g was investigated at different pH values, i.e., 5.5, 6.5, 7.4, and 8.5. Spectra were recorded over a period of 24 h, with 40 µM solutions (1% DMSO in water) in the range of 250–700 nm. The chosen pH values represented the physiologically relevant conditions; a pH value of 8.5 is the highest pH found in the human body (in the duodenum), a pH value of 7.4 is the average pH of human blood, and a pH value of 6.5 is the pH found in the extracellular matrix of solid tumors.
Stability measurements were performed on a Lambda 35 UV/VIS spectrometer (Perkin Elmer, Boston, MA, USA). Samples of complexes 1a–g: 40 µM in PBS (pH 7.4) and isotonic saline phosphate buffer with 0.9% sodium chloride (pH 8.5), diluted isotonic acetic acid (pH 5.5), and acetate buffer (pH 6.5) with 1% DMSO. UV-VIS spectra were recorded hourly for 24 h at 37 °C. Temperature control was maintained by a PTP-6 Peltier System (Perkin Elmer, Boston, MA, USA).

[3] = Solubility in minimal essential medium (MEM, 1% DMSO)
Description: Melting points were determined with a Büchi Melting Point M-560. The solubility was determined by dissolving the compound in DMSO and subsequent dilution to a final concentration of 1% DMSO/MEM solution (minimal essential medium) and 1% DMSO/MSP solution (medium with serum proteins). The highest concentrated dilution, where no precipitation of the compound occurred, was the determined solubility. The NMR spectra were recorded at 25 °C using a Bruker FT-NMR spectrometer Avance III^TM 500 MHz. ^1H-NMR spectra were measured at 500.10 MHz and ^13C-NMR spectra were recorded at 125.75 MHz in deuterated methanol (CD3OD). 2D-NMR spectra were measured using a gradient-enhanced mode. CHN elemental analyses were performed with a Eurovector EA3000 Elemental Analyzer in the microanalytical laboratory of the University of Vienna. Single crystals of complexes 1b–1f suitable for X-ray diffraction analysis were grown by precipitation from DCM/Et2O at 4 °C. The X-ray intensity data were measured on Bruker D8 Venture or X8 APEX II diffractometer equipped with multilayer monochromators, Mo K/α INCOATEC microfocus sealed tubes and Kryoflex cooling devices (Bruker, Karlsruhe, Germany). The structures were solved by direct methods and refined by full-matrix least-squares techniques. Non-hydrogen atoms were refined with anisotropic displacement parameters. Hydrogen atoms were inserted at calculated positions and refined with a riding model separately as rotating groups. The following software was used: Bruker SAINT software package using a narrow-frame algorithm for frame integration, SADABS [33] for absorption correction, OLEX2 [34] for structure solution, refinement, molecular diagrams and graphical user-interface, Shelxle for refinement and graphical user-interface, SHELXS-2013 [36] for structure solution, SHELXL-2013 [37] for refinement, and Platon for symmetry check. Electronspray ionization mass spectra were recorded on a Bruker AmaZon SL ion trap mass spectrometer (Bruker Daltonics GmbH, Hamburg, Germany).

SMILES | IC50 [1] [µM] | hydrolysis in aqueous systems ([2]; aquation to the aqua complex) | solubility [3] | precipitation at pH 7.4 [2]
Cc1ccc(C(C)C)cc1.O=C1C2=C(NCc3ccccc3)[O][Ru-]([Cl])[O+]=C2c2ccccc21 [1a] | 12.5 ± 4.4 | hydrolyzed quickly to the more reactive aqua complex | – | –
Cc1ccc(C(C)C)cc1.Cn1ccnc1.F[P-](F)(F)(F)(F)F.O=C1C(=C(NCc2ccccc2)[O][Ru+])C(=O)c2ccccc21 [1b] | 16.2 ± 2.6 | – | 0.30 mg/mL and 0.40 mM | –
Cc1ccc(C(C)C)cc1.F[P-](F)(F)(F)(F)F.O=C1C2=C(NCc3ccccc3)[O][Ru-]([n+]3ccc[nH]3)[O+]=C2c2ccccc21 [1c] | 11.5 ± 2 | – | 0.28 mg/mL and 0.39 mM | –
Cc1ccc(C(C)C)cc1.F[P-](F)(F)(F)(F)F.O=C1C2=C(NCc3ccccc3)[O][Ru-]([n+]3c[nH]c4ccccc43)[O+]=C2c2ccccc21 [1d] | 10.6 ± 1.8 | – | 0.29 mg/mL and 0.37 mM | precipitated to some extent
Cc1ccc(C(C)C)cc1.F[P-](F)(F)(F)(F)F.O=C1C2=C(NCc3ccccc3)[O][Ru-]([n+]3cc4ccccc4[nH]3)[O+]=C2c2ccccc21 [1e] | 11 ± 3 | – | 0.06 mg/mL and 0.08 mM | precipitated to some extent
Cc1ccc(C(C)C)cc1.F[P-](F)(F)(F)(F)F.O=C1C2=C(NCc3ccccc3)[O][Ru-]([NH+]3CCOCC3)[O+]=C2c2ccccc21 [1g] | 12.2 ± 2.7 | – | 0.22 mg/mL and 0.29 mM | –
